Converted amounts (≈) assume the structure as drawn. “And” between values parts separate entries of the source, which are not always exact repeats. Identical values can stand only once.
How the values were obtained:
[1] = test system: Candida albicans; design: method as in PMID 31537789; conditions: in vitro; cited from earlier work
[2] = target: T1, McFKBP12 (Mucor circinelloides, UniProt U3N5X4); assay: ITC binding to M. circinelloides FKBP12; conditions: for Kd / Stoichiometry / TΔS / ΔG° / ΔH: ITC, 25°C, average from triplicates
T1 sequence (U3N5X4 1-108): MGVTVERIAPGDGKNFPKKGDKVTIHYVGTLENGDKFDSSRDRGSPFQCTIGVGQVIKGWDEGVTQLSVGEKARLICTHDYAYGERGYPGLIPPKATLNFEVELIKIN
Protocol: (§1) The lower panel represents the integrated heat changes upon binding (kilocalories/mole) corrected for the protein and ligand heat of dilution. Fitting was performed using the MicroCal Origin software. Download FIG S2, TIF file, 0.9 MB.
(§2) After the size exclusion purification, the proteins were concentrated to ∼2 mg/ml using a 3,000-MWCO Amicon concentrator. Proteins were exhaustively dialyzed at 4°C in the isothermal titration calorimetry (ITC) buffer (50 mM sodium phosphate, 50 mM sodium chloride, pH 7.0). Experiments were performed using a VP-ITC instrument (MicroCal Inc., Northampton, MA) at 25°C. All solutions were degassed under vacuum at 25°C for 15 min immediately before use. […] was loaded into the syringe at a concentration of 25 μM and titrated in by a first injection of 2 μl followed by 22 injections of 6 μl. Following each injection, the cell was equilibrated for 3 min. […] The proteins were loaded in the cell at a concentration of 10 μM with constant stirring at 307 rpm (25°C). […] The enthalpy of binding (ΔH, kilocalories/mole) was determined by integration of the injection peaks minus the controls for the heat of dilution (equivalent experiments without the ligand and without the protein). The MicroCal Origin software (OriginLab Corp., Northampton, MA) was used for a variety of binding models.

[3] = target: T2, hFKBP12 (Homo sapiens, UniProt P62942); assay: ITC binding to human FKBP12
T2 construct: His6 (thrombin-cleavable) (N, cleaved yes); made in house; host or cells: E. coli BL21(DE3)
Protocol: as §1, §2

[4] = test system: cryptococcal model of invasive fungal infection; design: method as in PMID 31537789; conditions: murine model; cited from earlier work
[5] = test system: T helper cell-dependent germinal center B cell response; design: method as in PMID 31537789; conditions: cited from earlier work
[6] = test system: interleukin-2 (IL-2) production in primary murine CD4+ T cells; design: method as in PMID 31537789; conditions: reduction of IL-2 production in primary murine CD4+ T cells; cited from earlier work
[7] = Solubility noted in ITC set-up; type: physicochemical; conditions: restricting the usable concentration in ITC
Protocol: as §2

[8] = target: T3, AfFKBP12 (Aspergillus fumigatus, UniProt Q4WLV6); assay: biochemical; type: binding; conditions: for TΔS / ΔG° / ΔH / Stoichiometry / Kd: ITC, 25°C, average from triplicates; for Stoichiometry: ligand-FKBP12
T3 construct: His6 (thrombin-cleavable) (N, cleaved yes); made in house; host or cells: E. coli BL21(DE3)
T3 sequence (Q4WLV6 1-112): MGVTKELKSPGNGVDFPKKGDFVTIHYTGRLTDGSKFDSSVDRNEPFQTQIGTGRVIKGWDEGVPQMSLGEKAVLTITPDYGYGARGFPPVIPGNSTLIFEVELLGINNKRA
Protocol: as §1, §2

[9] = test system: Cryptococcus neoformans; design: method as in PMID 31537789; conditions: C. neoformans; cited from earlier work
[10] = test system: A. fumigatus strains expressing McFKBP12 or McFKBP12-Y88F; assay: Growth assay of A. fumigatus strains expressing FKBP12 variants in presence of FK506; type: cell-based, Aspergillus fumigatus
Protocol: A. fumigatus wild-type strain akuB^KU80 was used for growth and recombinant strain generation experiments. A. fumigatus wild-type or recombinant strains were cultured on glucose minimal medium (GMM) or RPMI liquid medium at 37°C for 24- or 48-h- periods. […] All growth experiments were repeated as technical triplicates, each also as biological triplicates.

[11] = test system: FKBP12; design: method as in PMID 1380976; conditions: cited from earlier work
[12] = design: method as in PMID 1380976; conditions: cited from earlier work
[13] = design: method as in PMID 1380976; conditions: cited from earlier work; remark: listed apart in the source
[14] = ITC, 25°C, average from triplicates

T2 sequence (P62942 whole entry): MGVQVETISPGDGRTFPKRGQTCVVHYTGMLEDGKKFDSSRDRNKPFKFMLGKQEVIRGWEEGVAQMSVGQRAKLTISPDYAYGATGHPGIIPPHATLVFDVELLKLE

| Compound | Kd [2] | Stoichiometry [2] | TΔS [2] [kcal/mol] | ΔG° [2] [kcal/mol] | ΔH [2] [kcal/mol] | Stoichiometry [3, 14] | TΔS [3, 14] [kcal/mol] | ΔG° [3, 14] [kcal/mol] | ΔH [3, 14] [kcal/mol] | TΔS [8] [kcal/mol] | ΔG° [8] [kcal/mol] | ΔH [8] [kcal/mol] | Stoichiometry [8] | Kd [8] [nM] | other results |
| --- | --- | --- | --- | --- | --- | --- | --- | --- | --- | --- | --- | --- | --- | --- | --- |
| C=CCC1C=C(C)CC(C)CC(OC)C2OC(O)(C(=O)C(=O)N3CCCCC3C(=O)OC(C(C)=CC3CCC(O)C(OC)C3)C(C)C(O)CC1=NNC(C)=O)C(C)CC2OC (stereo not drawn) [APX879] | ~120 nM and 126 nM | 0.93 ± 0.17 | 7.4 ± 0.2 | -9.4 ± 0.2 | -2.0 ± 0.1 | 1.41 ± 0.03 | 7.4 ± 0.8 | -9.2 ± 0.9 | -1.8 ± 0.4 | 7.2 ± 1.0 | -8.0 ± 1.0 | -1.2 ± 0.4 | 1.96 ± 0.13 | 462 | MIC [1]: 8 µg/mL (≈ 9.3 µM); Reduction in affinity compared to FK506 ([2]; ITC KD, APX879 versus FK506): ~40 fold; Reduction in affinity compared to FK506 ([3]; ITC KD, APX879 versus FK506): ~40 fold; Kd [3, 14]: ~120 nM and 119 nM; Efficacy in cryptococcal model [4]: confirmed efficacy; Ability to stimulate T helper cell-dependent germinal center B cell response ([5]; in comparison to FK506 treatment, animal models): significant reduction; Immunosuppressive activity in vivo ([5]; murine model): reduced immunosuppressive activity; Reduced immunosuppressive activity compared to FK506 [6]: 71 fold; Solubility [7]: low solubility; Reduction in affinity compared to FK506 ([8]; ITC KD, APX879 versus FK506): 100 fold; Reduction in antifungal efficacy compared to FK506 [9]: 17 fold |
| C=CC[C@@H]1/C=C(\C)C[C@H](C)C[C@H](OC)[C@H]2O[C@@](O)(C(=O)C(=O)N3CCCC[C@H]3C(=O)O[C@H](/C(C)=C/[C@@H]3CC[C@@H](O)[C@H](OC)C3)[C@H](C)[C@@H](O)CC1=O)[C@H](C)C[C@@H]2OC [FK506, reference compound] | 3 ± 0.7 nM | 1.06 ± 0.06 | 1.9 ± 0.2 | -11.7 ± 0.2 | -9.8 ± 0.1 | 1.09 ± 0.03 | -3.3 ± 1.2 | -12.0 ± 1.6 | -15.0 ± 1.1 | 4.6 ± 0.3 | -11.3 ± 0.4 | -6.7 ± 0.3 | 2.02 ± 0.06 | 4.7 ± 0.6 | FK506 sensitivity of A. fumigatus strain expressing McFKBP12 ([10]; Affkbp12 locus replaced with Mcfkbp12, increasing concentrations of FK506): does not restore A. fumigatus FK506 sensitivity; FK506 sensitivity of A. fumigatus strain expressing McFKBP12-Y88F ([10]; McFKBP12-Y88F mutant): restoration of FK506 sensitivity; Toxicity in animal models ([5]; animal models): acute toxicity |
| CC[C@@H]1/C=C(\C)[C@@H](O)[C@H](C)C[C@H](OC)[C@H]2O[C@@](O)(C(=O)C(=O)N3CCCC[C@H]3C(=O)O[C@H](/C(C)=C/[C@@H]3CC[C@@H](O)[C@H](OC)C3)[C@H](C)[C@@H](O)CC1=O)[C@H](C)C[C@@H]2OC [L-685,818] | – | – | – | – | – | – | – | – | – | – | – | – | – | – | Binding to FKBP12 [11]: still binds to FKBP12; Immunosuppressive activity [12]: nonimmunosuppressive; Antifungal activity [13]: retains antifungal activity |
